From patent US5101059A, “Amino acid protecting groups” (Research Corporation Technologies, Inc., priority 1989, dated 1992) come the findings set out here.

Type in all cases: physicochemical
A short description of data set [1]: Base deblocking and stability of 9-xanthenylmethyl and 9,10-dihydro-9-anthracenylmethyl derivatives. Conditions: room temperature; for time for evidence for initiation of the deblocking: piperidine 100 eq.; for time for evidence for initiation of the deblocking / time needed to complete the deblocking: DMF; for time needed to complete the deblocking: DBU 100 eq. As for the experimental part:
1. Deblocking of Xmoc-PCA in 1,5,9-Triazabicyclo[4,4,0]dec-5-ene Solution: To a solution of 7.90 mg (0.0216 mmol) of Xmoc-PCA in 0.6 mL of pyridine was added 0.15 g (1.078 mmol 50 eq.) of 1,5,9-triazabicyclo[4,4,0]dec-5-ene (TBD). The mixture was stirred at room temperature and monitored by TLC with an eluant consisting of Skelly B--EtOAc (3:1). Complete deblocking had occurred after 25 minutes.
2. Base Deblocking of 9-Xanthenylmethyl Phenylacetate: a. In Piperdine Solution: To a solution of 13.39 mg of 9-XM-phenylacetate in 1.6 mL of DMF was added 0.4 mL (100 eq.) of piperidine. The mixture was stirred at room temperature. […] In DBU Solution: To a solution of 6.36 mg of 9-XM-phenylacetate in 0.9 mL of DMF was added 0.3 mL of 1,8-diazabicyclo[5,4,0]-undec-7-ene (DBU) (100 eq.). The mixture was stirred at room temperature. […] In TBD Solution: To a solution of 7.91 mg of 9-XM-phenylacetate in 0.3 mL of pyridine was added 100 mg (30 eq.) of 1,5,9-triazabicyclo[4,4,0]dec-5-ene. The mixture was stirred at room temperature.
1. General Procedure for Studying the Stabilities of DHAmoc-PCA, Xmoc-PCA, and DC-Xmoc-PCA in Piperidine Solution To a solution of urethane (0.0294 mmol) in 1.2 mL of DMF was added 0.3 mL (2.94 mmol, 100 eq.) of piperidine. The mixture was stirred at room temperature and monitored by TLC with an eluant consisting of Skelly B--EtOAc (3:1). Evidence for initiation of the deblocking required 2 minutes for DC-Xmoc-PCA, 3.5 hours for Xmoc-PCA, and 7 hours for DHAmoc-PCA.
2. General Procedure for Studying the Deblocking of Xmoc-PCA and DHAmoc-PCA in DBU Solution: To a solution of urethane (0.0324 mmol) in 0.5 mL of DMF was added 0.5 mL (3.24 mmol, 100 eq.) of 1,8-diazabicyclo[5,4,0]undec-7-ene. The mixture was stirred at room temperature and monitored by TLC with the eluant consisting of Skelly B--EtOAc (3:1). The time needed to complete the deblocking was 3.5 hours for Xmoc-PCA, and 6 hours for DHAmoc-PCA.

A short description of data set [2]: Base deblocking of substituted urethanes (U-PCA) by various amines. Conditions: dichloromethane, room temperature. The source says:
1. General Procedure for Studying the Base Deblocking of the Urethanes Fmoc-PCA, BTS-Fmoc-PCA, DT-Fmoc-PCA, and TMS-Fmoc-PCA: A mixture of urethane (0.05 mmol) in a solution prepared from an equal volume of base (2.5 mmol, 50 eq.) and dichloromethane was stirred at room temperature. The course of the reaction was monitored by TLC with an eluant consisting of Skelly B--ether (3:1).

Data set [3] is described as follows: General statements on cleavage by piperidine or fluoride ion.
Data set [4] can be described thus: Solubility of TMS-Fmoc and dichloro-Xmoc derivatives versus Fmoc analogs. As to conditions: in non-polar solvents.
Protocol: This latter property is particularly important when peptide synthesis is carried out in solution.
Data set [5] in a line: Base deblocking of FM-Fmoc-PCA. Conditions: room temperature. As for the experimental part: A. Base Deblocking of FM-Fmoc-PCA: 1. In Piperidine Solution: To a solution of 24.96 mg of FM-Fmoc-PCA in 0.5 mL of DMF was added 0.5 mL (100 eq.) of piperidine. The mixture was stirred at room temperature. […] 2. In DBN Solution: To a solution of 12.81 mg of FM-Fmoc-PCA in 0.15 mL of DMF was added 0.15 mL (50 eq.) of 1,5-diazabicyclo[4,3,0]nonene-7 (DBN). The mixture was stirred at room temperature. […] 3. In DBU Solution: To a solution of 10.58 mg of FM-Fmoc-PCA in 0.15 mL of DMF was added 0.15 mL (50 eq.) of 1,8-diazabicyclo[5,4,0]undec-7-ene (DBU). The mixture was stirred at room temperature. […] 4. In TBD: To a solution of 18.95 mg of FM-Fmoc-PCA in 0.2 mL of DMF and 0.2 mL of pyridine was added 100 mg (20 eq.) of 1,5,9-triazabicyclo[4,4,0]dec-5-ene (TBD). The mixture was stirred at room temperature.

The nature of data set [6]: Base deblocking of R-Fmoc-aniline by various amines. Conditions: for Time for Complete Deblocking / Time for Complete Scavenging of Dibenzofulvene: room temperature. Here is the method:
2. General Procedure for Studying the Base Deblocking of the Urethanes R-Fmoc-aniline (R=TMS, DMPS, DPMS, DT-TMS, TIPS): A solution of urethane (0.05 mmol) in a sample of redistilled base (5 mmol, 100 eq.) was allowed to stand at room temperature. The reaction was monitored periodically by TLC with an eluant consisting of Skelly B--CH2 Cl2 (1:1). No reaction occurred according to the TLC test for urethanes having R=TIPS in the case of any of the bases tested after 24 hours.

A short description of data set [7]: Deblocking of R-Fmoc-aniline by fluoride ion. Conditions: tetra-n-butylammonium chloride 3.0 eq., KF dihydrate 4.1 eq., acetonitrile, room temperature. As for the experimental part:
3. General Procedure for Studying the Deblocking of Urethanes R-Fmoc-aniline (R=TMS, DMPS, DPMS, TIPS, DT-TMS) by Reaction with Fluoride Ion: To a solution of urethane (0.0513 mmol) in 0.7 mL of acetonitrile was added 45 mg (0.154 mmol, 3.0 eq.) of tetra-n-butyl-ammonium chloride and 20 mg (0.213 mmol, 4.1 eq.) of potassium fluoride dihydrate. The mixture was stirred at room temperature, the reaction being monitored by TLC with an eluant consisting of Skelly B--CH2 Cl2 (1:1).

Data set [8] is described as follows: Deblocking of R-Fmoc-aniline by trifluoroacetic acid. Conditions: room temperature. The source says:
1. General Procedure for Studying the stability of R-Fmoc-analine (R=TMS, DMPS, DPMS, DT-TMS, TIPS) in Trifluoroacetic Acid: To a solution of urethane (0.026 mmol) in […].) of trifluoroacetic acid. The mixture was stirred at room temperature and the course of the reaction was monitored by TLC with an eluant consisting of Skelly B--dichloromethane (1:1) to note the time needed for complete deblocking of the urethanes.

Setting [9] is: morpholine 50 eq., significant aminodibenzofulvene type adduct formed.
Where [10] appears, read: piperidine 50 eq., significant aminodibenzofulvene type adduct formed.

Structures are written as SMILES.

Regarding `O=C(Nc1ccc(Cl)cc1)OCC1c2cc(Cl)ccc2Oc2ccc(Cl)cc21` [DC-Xmoc-PCA, 2,7-Dichloro-9-xanthenylmethyl p-Chlorocarbanilate], the “time for evidence for initiation of the deblocking” value (shortened to “time for evidence for initiation”) in data set [1] came out at 0.033 h.
Take `O=C(Nc1ccc(Cl)cc1)OCC1c2ccccc2-c2ccccc21` [Fmoc-PCA, 9-fluorenylmethyl p-chlorocarbanilate, reference compound]: the “Time for Complete Deblocking” value was 45 min in data set [2] (ethanolamine 50 eq.), 75 min in data set [2] (setting [9]), less than 3 min in data set [2] (setting [10]) and 300 min in data set [2] (t-butylamine 50 eq.). For the same compound, the “Time for Complete Scavenging of Dibenzofulvene Analogs” value in data set [2] (morpholine 50 eq.) amounted to 2.5 hr; in data set [2] (piperidine 50 eq.), 68 min.
As for `CC(C)[Si](C(C)C)(C(C)C)C1(COC(=O)Nc2ccccc2)c2ccccc2-c2ccccc21` [derivative F], in data set [3] (inorganic base, fluoride ion), the “cleavage by fluoride ion” value is reported as “cleaved by the inorganic base, fluoride ion”. Besides, the “deblocking by / stability to piperidine” value in data set [3] was “stable to piperidine”.
For `C[Si](C)(C)C1(COC(=O)Nc2ccc(Cl)cc2)c2ccccc2-c2ccccc21` [Example 9-TMS-Fmoc], the “deblocking by / stability to piperidine” value in data set [3] was “deblocked by piperidine, although somewhat more slowly than the Fmoc group itself”. For the same compound, in data set [4], the “solubility compared with ordinary Fmoc analogs” value is reported as “enormously more soluble in non-polar solvents than ordinary Fmoc analogs”.
With `O=C(Nc1ccc(Cl)cc1)OCC1(CC2c3ccccc3-c3ccccc32)c2ccccc2-c2ccccc21` [FM-Fmoc-PCA, 9-(9'-Fluorenylmethyl)-9-fluorenylmethyl p-Chlorocarbanilate], the “time at which deblocking had begun” value in data set [5] (DBN 50 eq., DMF) is not above 10 min. For the same compound, in data set [5] (DBN 50 eq., DMF, still not complete), the “Time for Complete Deblocking” value was more than 24 h. Moreover, in data set [5] (DBU 50 eq., DMF), the “Time for Complete Deblocking” value worked out at 12 h and the “time at which deblocking had begun” value is not above 10 min. Also, in data set [5] (TBD 20 eq., DMF and pyridine), the start of deblocking entry is given as “immediately” and the “time for complete deblocking-scavenging reaction” value is 1 h. Moreover, in data set [5] (piperidine 100 eq., DMF), the “time at which first deblocking was detected” value amounted to 12 h.
In the case of `CC(C)(C)c1ccc2c(c1)C(COC(=O)Nc1ccc(Cl)cc1)c1cc(C(C)(C)C)ccc1-2` [DT-Fmoc-PCA, 2,7-Di-tert-butyl-9-Fluorenylmethyl p-Chlorocarbanilate], the “Time for Complete Deblocking” value came to 240 min in data set [2] (ethanolamine 50 eq.), 600 min in data set [2] (setting [9]), 12 min in data set [2] (setting [10]) and 600 min in data set [2] (t-butylamine 50 eq.). In addition, the “Time for Complete Scavenging of Dibenzofulvene Analogs” value in data set [2] (morpholine 50 eq.) is 13 hr; in data set [2] (piperidine 50 eq.), 84 min.
`O=C(Nc1ccc(Cl)cc1)OCC1c2ccccc2Oc2ccccc21` [Xmoc]: the “deblocking by / stability to piperidine” value in data set [3] was “stable to piperidine”.
Take `O=C(Nc1ccc(Cl)cc1)OCC1c2ccccc2Oc2ccccc21` [Xmoc-PCA, 9-Xanthenylmethyl p-Chlorocarbanilate]: in data set [1], the “time needed to complete the deblocking” value was 3.5 h and the “time for evidence for initiation” value came to 3.5 h. Besides, the “Time for Complete Deblocking” value in data set [1] (TBD 50 eq., pyridine) was found to be 25 min.
For `C[Si](c1ccccc1)(c1ccccc1)C1(COC(=O)Nc2ccccc2)c2ccccc2-c2ccccc21` [DPMS, 9-Diphenyl(methyl)silyl-9-fluoroenylmethyl Carbanilate], the “Time for Complete Deblocking” value in data set [6] (morpholine 100 eq.) came to 0.583 h; in data set [6] (piperidine 100 eq.), 0.467 h; in data set [6] (t-butylamine 100 eq.) it was 1.5 h. Besides, the “Time for Complete Scavenging of Dibenzofulvene” value in data set [6] (morpholine 100 eq.) stood at 51 min; in data set [6] (piperidine 100 eq.), 150 min. In addition, the “Time for Complete Deblocking by Fluoride Ion” value (from here on “Time … by Fluoride Ion”) in data set [7] is less than 2 min. In addition, the “Time for Complete Deblocking by Trifluoroacetic Acid” value (“Time … by Trifluoroacetic Acid” below) in data set [8] was 18 h.
Regarding `CC(C)(C)c1ccc2c(c1)C(COC(=O)Nc1ccccc1)([Si](C)(C)C)c1cc(C(C)(C)C)ccc1-2` [DT-TMS, 2,7-Di-tert-butyl-9-trimethylsilyl-9-fluorenylmethyl Carbanilate], the “Time for Complete Deblocking” value in data set [6] (morpholine 100 eq.) is 16 h; in data set [6] (piperidine 100 eq.) it was 13 h; in data set [6] (t-butylamine 100 eq.), more than 24 h. In addition, the results for the “Time for Complete Scavenging of Dibenzofulvene” value in data set [6] (morpholine 100 eq.) and in data set [6] (piperidine 100 eq.) were 1020 min and 1080 min, respectively. In addition, the “Time … by Fluoride Ion” value in data set [7] was determined as 10 min. Besides, in data set [8], the “Time … by Trifluoroacetic Acid” value is 0.833 h.
For `CC(C)[Si](C(C)C)(C(C)C)C1(COC(=O)Nc2ccccc2)c2ccccc2-c2ccccc21` [TIPS, 9-Triisopropylsilyl-9-fluorenylmethyl Carbanilate], in data set [6] (any of the bases tested, 100 eq., 24 hours), the “reaction with amine bases (TLC)” value is “no reaction was detected”. In addition, the “Time … by Fluoride Ion” value in data set [7] was found to be 1080 min. Further, the “Time … by Trifluoroacetic Acid” value in data set [8] amounted to 0.567 h.
With `O=C(Nc1ccc(Cl)cc1)OCC1c2ccccc2Cc2ccccc21` [DHAmoc-PCA, 3,10-Dihydro-9-anthracenylmethyl p-Chlorocarbanilate], in data set [1], the “time needed to complete the deblocking” value was determined as 6 h and the “time for evidence for initiation” value stood at 7 h.
Take `C[Si](C)(c1ccccc1)C1(COC(=O)Nc2ccccc2)c2ccccc2-c2ccccc21` [DMPS, 9-Dimethyl(phenyl)silyl-9-fluorenylmethyl Carbanilate]: the “Time for Complete Deblocking” value in data set [6] (morpholine 100 eq.) was 0.783 h; in data set [6] (piperidine 100 eq.), 0.667 h; in data set [6] (t-butylamine 100 eq.), 3.5 h. In addition, the “Time for Complete Scavenging of Dibenzofulvene” value in data set [6] (morpholine 100 eq.) is recorded as 60 min; in data set [6] (piperidine 100 eq.), 220 min. Also, in data set [7], the “Time … by Fluoride Ion” value is given as less than 2 min. Also, the “Time … by Trifluoroacetic Acid” value in data set [8] amounted to 8 h.
